Results published in PubChem BioAssay (NCI).
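Compound exposure: 48 hours, 5 concentrations, 96-well plates. TGI: concentration producing complete growth inhibition.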

Assays:
Assay in all cases: NCI-60 cell line screen, 48 h
ACHN renal = tested on: ACHN renal
SK-OV-3 ovarian = tested on: SK-OV-3 ovarian
COLO 205 colon = tested on: COLO 205 colon
EKVX NSCLC = tested on: EKVX NSCLC
IGROV1 ovarian = tested on: IGROV1 ovarian
HL-60(TB) leukemia = tested on: HL-60(TB) leukemia
M14 melanoma = tested on: M14 melanoma
BT-549 breast = tested on: BT-549 breast
DU-145 prostate = tested on: DU-145 prostate
HCC-2998 colon = tested on: HCC-2998 colon
TK-10 renal = tested on: TK-10 renal
HOP-92 NSCLC = tested on: HOP-92 NSCLC
OVCAR-8 ovarian = tested on: OVCAR-8 ovarian
KM12 colon = tested on: KM12 colon
SN12C renal = tested on: SN12C renal
SW-620 colon = tested on: SW-620 colon
SF-268 CNS = tested on: SF-268 CNS
RPMI-8226 leukemia = tested on: RPMI-8226 leukemia
RXF 393 renal = tested on: RXF 393 renal

SMILES | TGI (ACHN renal) | TGI (SK-OV-3 ovarian) | TGI (COLO 205 colon) | TGI (EKVX NSCLC) | TGI (IGROV1 ovarian) | TGI (HL-60(TB) leukemia) | TGI (M14 melanoma) | TGI (BT-549 breast) | TGI (DU-145 prostate) | TGI (HCC-2998 colon) | TGI (TK-10 renal) | TGI (HOP-92 NSCLC) | TGI (OVCAR-8 ovarian) | TGI (KM12 colon) | TGI (SN12C renal) | TGI (SW-620 colon) | TGI (SF-268 CNS) | TGI (RPMI-8226 leukemia) | TGI (RXF 393 renal)
COc1cc(/C=C2/C(=O)N=C(NC(C)=O)N2C)ccc1OC(C)=O | > 100 µM | > 100 µM | > 100 µM | > 100 µM | > 100 µM | > 100 µM | > 100 µM | > 100 µM | > 100 µM | > 100 µM | > 100 µM | > 100 µM | > 100 µM | > 100 µM | > 100 µM | > 100 µM |  |  | 
CCCCCCCCCCCCCCC[C@@H](O)C[N+](C)(C)CCO | 24.1 µM | 36 µM | 14.6 µM | 37.4 µM | 2.11 µM | 0.36 µM | 41.1 µM | 3.63 µM | 48.2 µM | 4.81 µM | 2.86 µM | > 39.7 µM | 30 µM | 1.4 µM | 50.8 µM | > 45.4 µM | 6.66 µM | > 100 µM | 
O=C1c2ccccc2-n2c1nc1cc(Cl)ccc1c2=O | > 100 µM | > 100 µM | > 100 µM | > 100 µM | > 100 µM |  | > 100 µM | > 100 µM | > 100 µM | > 100 µM | > 100 µM | > 100 µM | > 100 µM | > 100 µM | > 100 µM |  | > 100 µM | > 100 µM | > 100 µM
O=C(/C=C/c1ccc(O)cc1)c1cc(O)cc(O)c1 | 20.2 µM | 42.4 µM | 31.9 µM | 32.5 µM | 26.6 µM | > 100 µM | 29.3 µM | 29.8 µM | 25.2 µM |  | 45.8 µM | 31.9 µM | 27.6 µM |  | 28.4 µM |  | 54.3 µM | 21.3 µM | 32 µM
CCCCCCCCCCCCCCCCNc1ccc2c(c1)OCCOCCOCCOCCO2 |  | 9.49 µM | 3.18 µM | 14.4 µM | 9.41 µM | 6.16 µM | 13.5 µM | 11.6 µM | 15.3 µM |  | 25.7 µM | 5.99 µM | 10.8 µM | 4.84 µM | 10.5 µM | 13.3 µM | 11.9 µM | 4.49 µM | 5.58 µM
CC(C(=O)N1C(=O)N(C(=O)[C@H](C)C(O)c2ccccc2)[C@H](c2ccccc2)[C@H]1c1ccccc1)[C@@H](O)c1ccccc1 (stereo not given in full) | > 100 µM | > 100 µM | 33.2 µM | 93.4 µM | 64.9 µM | > 100 µM | 61.7 µM | 71 µM | > 100 µM | > 100 µM | > 100 µM | 83.3 µM | > 100 µM | > 100 µM | > 100 µM | > 100 µM | > 100 µM |  | 
COc1cc2c(cc1O)-c1c(OC)c(O)cc3c1C(C2)N(C)CC3 (stereo not given) | > 100 µM | > 100 µM | > 100 µM | > 100 µM | > 100 µM | > 100 µM | > 100 µM | > 100 µM | > 100 µM |  | > 100 µM | > 100 µM | > 100 µM | > 100 µM | > 100 µM | > 100 µM | > 100 µM | > 100 µM | > 100 µM
O=C(Nc1ccc(N2C(=O)CSC2c2cccs2)cc1)c1ccc(N2C(=O)CSC2c2cccs2)cc1 (stereo not given) | > 100 µM | > 100 µM | > 100 µM | > 100 µM | > 100 µM |  | > 100 µM | > 100 µM | > 100 µM | > 100 µM | > 100 µM | > 100 µM | > 100 µM | > 100 µM | > 100 µM | > 100 µM | > 100 µM |  | > 100 µM
CC(=O)OC(C#N)CC(C)(C)/[N+]([O-])=[N+](\[O-])C(C)(C)CC(C#N)OC(C)=O (stereo not given) | 24.5 µM | > 100 µM | 32 µM | 39.7 µM | 24 µM |  | 32.2 µM | 36.6 µM | 43.8 µM | 31.6 µM | 31.2 µM | 27 µM | 73.3 µM | 28.9 µM | 35.7 µM | 30.2 µM | 42.2 µM | 40.2 µM | 27.4 µM
COCN1C(=O)[C@@H]2CCCN2C(=O)c2cc(Cl)ccc21 | > 100 µM | > 100 µM | > 100 µM | > 100 µM | > 100 µM |  | > 100 µM | > 100 µM | > 100 µM | > 100 µM | > 100 µM | > 100 µM | > 100 µM | > 100 µM | > 100 µM | > 100 µM | > 100 µM | > 100 µM | > 100 µM
CC1=C2c3ccccc3N(S(=O)(=O)c3ccccc3)[C@H]2[C@H](C(=O)N2C3CC4CC[C@@]3(CS2(=O)=O)C4(C)C)CC1 (stereo not given in full) | > 100 µM | > 100 µM | > 100 µM | > 100 µM | > 100 µM | 21.9 µM | > 100 µM | 81.7 µM | > 100 µM |  | > 100 µM | > 100 µM | > 100 µM | > 100 µM | > 100 µM | > 100 µM | > 100 µM | 7.05 µM | 14.7 µM
O=C1Cc2c(-c3ccccc3)cc(-c3ccc4ccccc4c3)nc2-c2ccccc2N1 | > 100 µM | > 100 µM | > 100 µM | 76.4 µM | 11.9 µM |  | > 100 µM | > 100 µM | > 100 µM | > 100 µM | 29.4 µM | > 100 µM | 4.9 µM | 28.3 µM | 43.6 µM | > 100 µM | 29.9 µM | > 100 µM | 13.1 µM
CC(C)N(C(=O)c1ccc(NCc2cc(O)ccc2O)cc1)C(C)C | 26.7 µM | > 100 µM | > 100 µM | 28.6 µM | 64.8 µM | > 100 µM | 35.7 µM | 30.7 µM | 30 µM |  | 29.5 µM | 24.9 µM | 35.4 µM |  | 49 µM | 82 µM | 36.2 µM |  | 28.3 µM
CN(C)C(=O)C(F)(F)C(c1ccc(C(F)(F)F)cc1)C1C(=O)N(C)C(=O)N(C)C1=O (stereo not given) | > 100 µM | > 100 µM | > 100 µM | > 100 µM |  |  | > 100 µM | > 100 µM | > 100 µM | > 100 µM | > 100 µM | > 100 µM |  | > 100 µM |  | > 100 µM | > 100 µM | > 100 µM | > 100 µM
Cc1ccc(S(=O)(=O)c2ccsc2NC(=O)c2ccccc2)cc1 | > 79.7 µM | > 100 µM | > 100 µM | > 100 µM | > 100 µM |  | > 100 µM | > 100 µM | > 100 µM | > 100 µM | > 100 µM | > 100 µM | 98.5 µM | > 100 µM | > 100 µM | > 100 µM | > 82.5 µM | > 100 µM | 
Cc1ccc(Cc2nn(C)c(=O)n2-n2cccc2)cc1 | > 100 µM | > 100 µM | > 100 µM | > 100 µM | > 100 µM |  | > 100 µM | > 100 µM | > 100 µM | > 100 µM | > 100 µM |  | > 100 µM | > 100 µM | > 100 µM | > 100 µM | > 100 µM | > 100 µM | > 100 µM
O=C1CSC(c2ccccc2[N+](=O)[O-])N1c1ccc(-n2c(-c3ccccc3)nc3ccccc3c2=O)cc1 (stereo not given) | > 100 µM | 28.3 µM | > 100 µM | > 100 µM | > 100 µM | > 100 µM |  | > 100 µM | > 100 µM | > 100 µM | > 100 µM | 60.2 µM | > 100 µM | > 100 µM | > 100 µM | > 100 µM | > 100 µM | > 100 µM | 
C[N+]1(CCCC[N+]2(C)CCCCCCC2)CCCCCCC1 | > 100 µM |  |  | > 100 µM | > 100 µM | > 100 µM | > 100 µM | > 100 µM | > 100 µM |  | > 100 µM | > 100 µM | > 100 µM | > 100 µM | > 100 µM | > 100 µM | > 100 µM | > 100 µM | > 100 µM
COc1cc2c(cc1OC)CN1CCc3ccccc3CC1C2 (stereo not given) | > 100 µM | > 100 µM | > 100 µM | > 100 µM | > 100 µM | > 100 µM | > 100 µM | > 100 µM | > 100 µM | > 100 µM | 64.3 µM | > 100 µM | > 100 µM | > 100 µM | > 100 µM | > 100 µM |  |  | 
CCCCC1=CC1(C#N)[N+](=O)[O-] (stereo not given) | > 100 µM | > 100 µM | > 100 µM | > 100 µM | > 100 µM |  | > 100 µM | > 100 µM | > 100 µM | > 100 µM | > 100 µM | > 100 µM | > 100 µM | > 100 µM | > 100 µM | > 100 µM | > 100 µM | > 100 µM | > 100 µM
COC(=O)c1cn(CCCCO)nn1 | > 100 µM |  | > 100 µM | > 100 µM | > 100 µM |  |  | > 100 µM | > 100 µM | > 100 µM | > 100 µM | > 100 µM | > 100 µM | > 100 µM | > 100 µM | > 100 µM | > 100 µM |  | > 100 µM
